Source: PubChem BioAssay (NCI)
“And” between values parts separate entries of the source, which are not always exact repeats. Equal values may be shown once.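 96-well plates; 48 h exposure; 5 concentrations. Endpoints by linear interpolation between flanking doses. Not reached: highest tested concentration assigned. The concentration for 50% growth inhibition is given as GI50. TGI marks complete inhibition of growth.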

What was measured:
Experiment in all cases: growth of human tumour cells (NCI), 48 h
UACC-257 melanoma = system: UACC-257 melanoma
HCT-15 colon = system: HCT-15 colon
EKVX NSCLC = system: EKVX NSCLC
HCT-116 colon = system: HCT-116 colon
ACHN renal = system: ACHN renal
MDA-MB-435 = system: MDA-MB-435
NCI/ADR-RES ovarian = system: NCI/ADR-RES ovarian
NCI-H23 lung = system: NCI-H23 lung
HOP-62 NSCLC = system: HOP-62 NSCLC
A498 renal = system: A498 renal
SNB-75 CNS = system: SNB-75 CNS
SF-268 CNS = system: SF-268 CNS
MDA-MB-231 breast = system: MDA-MB-231 breast
CAKI-1 renal = system: CAKI-1 renal
HCC-2998 colon = system: HCC-2998 colon
NCI-H522 lung = system: NCI-H522 lung
SF-295 CNS = system: SF-295 CNS
RPMI-8226 leukemia = system: RPMI-8226 leukemia
MDA-N = system: MDA-N
HT29 colon = system: HT29 colon
IGROV1 ovarian = system: IGROV1 ovarian
OVCAR-5 ovarian = system: OVCAR-5 ovarian
OVCAR-4 ovarian = system: OVCAR-4 ovarian
MCF7 breast = system: MCF7 breast
SN12C renal = system: SN12C renal
SNB-19 CNS = system: SNB-19 CNS
LOX IMVI melanoma = system: LOX IMVI melanoma
COLO 205 colon = system: COLO 205 colon
SW-620 colon = system: SW-620 colon
HOP-92 NSCLC = system: HOP-92 NSCLC
OVCAR-8 ovarian = system: OVCAR-8 ovarian
DU-145 prostate = system: DU-145 prostate
SF-539 CNS = system: SF-539 CNS
SK-MEL-2 melanoma = system: SK-MEL-2 melanoma
HL-60(TB) leukemia = system: HL-60(TB) leukemia
A549 NSCLC = system: A549 NSCLC
CCRF-CEM leukemia = system: CCRF-CEM leukemia
KM12 colon = system: KM12 colon
BT-549 breast = system: BT-549 breast
SK-OV-3 ovarian = system: SK-OV-3 ovarian
786-0 renal = system: 786-0 renal
M14 melanoma = system: M14 melanoma
NCI-H226 lung = system: NCI-H226 lung
SR leukemia = system: SR leukemia
SK-MEL-28 melanoma = system: SK-MEL-28 melanoma
SK-MEL-5 melanoma = system: SK-MEL-5 melanoma
K-562 leukemia = system: K-562 leukemia
OVCAR-3 ovarian = system: OVCAR-3 ovarian
NCI-H460 lung = system: NCI-H460 lung
UACC-62 melanoma = system: UACC-62 melanoma
PC-3 prostate = system: PC-3 prostate
TK-10 renal = system: TK-10 renal
RXF 393 renal = system: RXF 393 renal
MOLT-4 leukemia = system: MOLT-4 leukemia
HS 578T breast = system: HS 578T breast
U251 CNS = system: U251 CNS
T-47D breast = system: T-47D breast
MALME-3M melanoma = system: MALME-3M melanoma

Which TGI (UACC-257 melanoma) does the source give for `O=c1ccn(C2OC(CO)C(O)C2O)c(=O)[nH]1` (stereo unspecified) here?
Its TGI is over 1 mM.

What about the GI50 (HCT-15 colon) of the same molecule?
Its GI50 is over 1 mM.

What about the TGI (HCT-15 colon) of the same molecule?
Its TGI is over 1 mM.

What about the GI50 (EKVX NSCLC) of the same molecule?
The GI50 was over 1 mM.

And the TGI (EKVX NSCLC)?
The TGI was over 1 mM.

What about the GI50 (HCT-116 colon) of the same molecule?
The GI50 was over 1 mM.

And the TGI (HCT-116 colon)?
Its TGI is over 1 mM.

What about the GI50 (ACHN renal) of the same molecule?
The GI50 was over 1 mM.

And the TGI (ACHN renal)?
Its TGI is over 1 mM.

And the GI50 (MDA-MB-435)?
Its GI50 is over 1 mM.

What about the TGI (MDA-MB-435) of the same molecule?
The TGI was over 1 mM.

What about the GI50 (NCI/ADR-RES ovarian) of the same molecule?
The GI50 was over 1 mM.

What about the TGI (NCI/ADR-RES ovarian) of the same molecule?
The TGI was over 1 mM.

And the GI50 (NCI-H23 lung)?
The GI50 was over 1 mM.

And the TGI (NCI-H23 lung)?
The TGI was over 1 mM.

What about the GI50 (HOP-62 NSCLC) of the same molecule?
The GI50 was over 1 mM.

What about the TGI (HOP-62 NSCLC) of the same molecule?
Its TGI is over 1 mM.

What about the TGI (A498 renal) of the same molecule?
The TGI was over 1 mM.

And the GI50 (SNB-75 CNS)?
The GI50 was 0.789 mM and > 0.01 mM.

What about the TGI (SNB-75 CNS) of the same molecule?
Its TGI is over 1 mM.

What about the GI50 (SF-268 CNS) of the same molecule?
The GI50 was over 1 mM.

What about the TGI (SF-268 CNS) of the same molecule?
Its TGI is over 1 mM.

What about the TGI (MDA-MB-231 breast) of the same molecule?
The TGI was over 1 mM.

And the TGI (CAKI-1 renal)?
Its TGI is over 1 mM.

What about the GI50 (HCC-2998 colon) of the same molecule?
The GI50 was over 1 mM.

What about the TGI (HCC-2998 colon) of the same molecule?
The TGI was over 1 mM.

What about the TGI (NCI-H522 lung) of the same molecule?
Its TGI is over 1 mM.

What about the GI50 (SF-295 CNS) of the same molecule?
Its GI50 is over 1 mM.

What about the TGI (SF-295 CNS) of the same molecule?
Its TGI is over 1 mM.

What about the GI50 (RPMI-8226 leukemia) of the same molecule?
The GI50 was over 1 mM.

And the TGI (RPMI-8226 leukemia)?
Its TGI is over 1 mM.

What about the GI50 (MDA-N) of the same molecule?
The GI50 was over 1 mM.

What about the TGI (MDA-N) of the same molecule?
The TGI was over 1 mM.

What about the GI50 (HT29 colon) of the same molecule?
Its GI50 is over 1 mM.

And the TGI (HT29 colon)?
The TGI was over 1 mM.

And the GI50 (IGROV1 ovarian)?
Its GI50 is over 1 mM.

What about the TGI (IGROV1 ovarian) of the same molecule?
The TGI was over 1 mM.

What about the TGI (OVCAR-5 ovarian) of the same molecule?
Its TGI is over 1 mM.

And the GI50 (OVCAR-4 ovarian)?
Its GI50 is over 1 mM.

What about the TGI (OVCAR-4 ovarian) of the same molecule?
Its TGI is over 1 mM.

And the GI50 (MCF7 breast)?
Its GI50 is over 1 mM.

What about the TGI (MCF7 breast) of the same molecule?
The TGI was over 1 mM.

What about the GI50 (SN12C renal) of the same molecule?
Its GI50 is over 1 mM.

And the TGI (SN12C renal)?
Its TGI is over 1 mM.

And the GI50 (SNB-19 CNS)?
Its GI50 is over 1 mM.

What about the TGI (SNB-19 CNS) of the same molecule?
Its TGI is over 1 mM.

And the GI50 (LOX IMVI melanoma)?
Its GI50 is over 1 mM.

What about the TGI (LOX IMVI melanoma) of the same molecule?
Its TGI is over 1 mM.

And the GI50 (COLO 205 colon)?
The GI50 was over 1 mM.

And the TGI (COLO 205 colon)?
The TGI was over 1 mM.

And the GI50 (SW-620 colon)?
Its GI50 is over 1 mM.

What about the TGI (SW-620 colon) of the same molecule?
The TGI was over 1 mM.

And the GI50 (HOP-92 NSCLC)?
Its GI50 is over 1 mM.

And the TGI (HOP-92 NSCLC)?
Its TGI is over 1 mM.

What about the GI50 (OVCAR-8 ovarian) of the same molecule?
Its GI50 is over 1 mM.

What about the TGI (OVCAR-8 ovarian) of the same molecule?
Its TGI is over 1 mM.

And the TGI (DU-145 prostate)?
The TGI was over 1 mM.

What about the GI50 (SF-539 CNS) of the same molecule?
The GI50 was over 1 mM.

What about the TGI (SF-539 CNS) of the same molecule?
The TGI was over 1 mM.

And the GI50 (SK-MEL-2 melanoma)?
The GI50 was over 1 mM.

And the TGI (SK-MEL-2 melanoma)?
The TGI was over 1 mM.

And the GI50 (HL-60(TB) leukemia)?
The GI50 was over 1 mM.

And the TGI (HL-60(TB) leukemia)?
The TGI was over 1 mM.

And the GI50 (A549 NSCLC)?
Its GI50 is over 1 mM.

And the TGI (A549 NSCLC)?
Its TGI is over 1 mM.

What about the GI50 (CCRF-CEM leukemia) of the same molecule?
The GI50 was over 1 mM.

What about the TGI (CCRF-CEM leukemia) of the same molecule?
Its TGI is over 1 mM.

And the GI50 (KM12 colon)?
Its GI50 is over 1 mM.

And the TGI (KM12 colon)?
Its TGI is over 1 mM.

What about the TGI (BT-549 breast) of the same molecule?
Its TGI is over 1 mM.

What about the GI50 (SK-OV-3 ovarian) of the same molecule?
The GI50 was over 1 mM.

What about the TGI (SK-OV-3 ovarian) of the same molecule?
The TGI was over 1 mM.

And the GI50 (786-0 renal)?
Its GI50 is over 1 mM.

What about the TGI (786-0 renal) of the same molecule?
Its TGI is over 1 mM.

And the TGI (M14 melanoma)?
The TGI was over 1 mM.

And the TGI (NCI-H226 lung)?
The TGI was over 1 mM.

What about the GI50 (SR leukemia) of the same molecule?
The GI50 was over 1 mM.

What about the TGI (SR leukemia) of the same molecule?
Its TGI is over 1 mM.

What about the GI50 (SK-MEL-28 melanoma) of the same molecule?
The GI50 was over 1 mM.

What about the TGI (SK-MEL-28 melanoma) of the same molecule?
The TGI was over 1 mM.

What about the GI50 (SK-MEL-5 melanoma) of the same molecule?
The GI50 was over 1 mM.

And the TGI (SK-MEL-5 melanoma)?
Its TGI is over 1 mM.

What about the GI50 (K-562 leukemia) of the same molecule?
Its GI50 is over 1 mM.

What about the TGI (K-562 leukemia) of the same molecule?
Its TGI is over 1 mM.

And the GI50 (OVCAR-3 ovarian)?
Its GI50 is over 1 mM.

What about the TGI (OVCAR-3 ovarian) of the same molecule?
Its TGI is over 1 mM.

What about the GI50 (NCI-H460 lung) of the same molecule?
Its GI50 is over 1 mM.

And the TGI (NCI-H460 lung)?
Its TGI is over 1 mM.

What about the GI50 (UACC-62 melanoma) of the same molecule?
The GI50 was over 1 mM.

And the TGI (UACC-62 melanoma)?
The TGI was over 1 mM.

What about the GI50 (PC-3 prostate) of the same molecule?
The GI50 was over 1 mM.

What about the TGI (PC-3 prostate) of the same molecule?
The TGI was over 1 mM.

And the GI50 (TK-10 renal)?
Its GI50 is over 1 mM.

What about the TGI (TK-10 renal) of the same molecule?
Its TGI is over 1 mM.

And the GI50 (RXF 393 renal)?
The GI50 was over 1 mM.

And the TGI (RXF 393 renal)?
The TGI was over 1 mM.

And the GI50 (MOLT-4 leukemia)?
The GI50 was 0.832 mM and > 0.01 mM.

And the TGI (MOLT-4 leukemia)?
The TGI was over 1 mM.

What about the GI50 (HS 578T breast) of the same molecule?
Its GI50 is over 1 mM.

And the TGI (HS 578T breast)?
Its TGI is over 1 mM.

What about the GI50 (U251 CNS) of the same molecule?
The GI50 was over 1 mM.

And the TGI (U251 CNS)?
Its TGI is over 1 mM.

And the GI50 (T-47D breast)?
Its GI50 is over 1 mM.

And the TGI (T-47D breast)?
Its TGI is over 1 mM.

And the GI50 (MALME-3M melanoma)?
The GI50 was 0.74 mM and > 0.01 mM.

What about the TGI (MALME-3M melanoma) of the same molecule?
Its TGI is over 1 mM.
